What is called IC50 is the concentration needed to halve the response being measured.

We go through 19 compounds from patent publication US10576062B2, “Carbamoyloxymethyl triazole cyclohexyl acids as LPA antagonists” (Bristol-Myers Squibb Company, priority 2016, dated 2020).

The target of this assay is T1, human LPA1 (Homo sapiens, UniProt Q92633).
T1 construct: expressed in transfected cells; host or cells: Chinese hamster ovary (CHO) cells
T1 sequence (Q92633 whole entry): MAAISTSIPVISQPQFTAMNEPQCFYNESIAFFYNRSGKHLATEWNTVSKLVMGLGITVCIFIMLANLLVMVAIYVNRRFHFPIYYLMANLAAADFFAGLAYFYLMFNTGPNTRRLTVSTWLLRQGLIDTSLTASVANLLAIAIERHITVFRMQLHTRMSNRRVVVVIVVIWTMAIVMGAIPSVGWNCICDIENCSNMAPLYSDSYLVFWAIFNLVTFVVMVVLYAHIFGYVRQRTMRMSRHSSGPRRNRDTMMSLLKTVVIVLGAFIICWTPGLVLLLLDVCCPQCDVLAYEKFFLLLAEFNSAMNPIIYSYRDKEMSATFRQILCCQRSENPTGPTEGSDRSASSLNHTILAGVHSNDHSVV
Description: LPA1 functional antagonist assay (LPA-induced calcium flux). The class given is cell-based. The following applies: read-out: hLPA1 IC50. The method, boiled down:
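CHO cells overexpressing human LPA1, loaded with calcium dye 30 min at 37° C, were preincubated 20 min at room temperature with compound (0.08 nM–5 μM, 0.5% DMSO) in HBSS/20 mM HEPES/0.1% fatty acid-free BSA.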
For orientation: A change in cytosolic calcium serves as a functional read-out for many receptors and channels.
For the compound `Cc1nc(-c2nnn(C)c2COC(=O)N(C)C2(C(C)C)CC2)ccc1O[C@H]1CCC[C@H](C(=O)O)C1` [Example 129, (1S,3S)-3-((6-(5-((((1-isopropylcyclopropyl)(methyl)carbamoyl)oxy)methyl)-1-methyl-1H-1,2,3-triazol-4-yl)-2-methylpyridin-3-yl)oxy)cyclohexane-1-carboxylic acid], the IC50 is 352 nM. With `Cc1nc(-c2nnn(C)c2COC(=O)N(C)C2(CC(C)C)CC2)ccc1O[C@H]1CCC[C@H](C(=O)O)C1` [Example 130, (1S,3S)-3-((6-(5-((((1-isobutylcyclopropyl)(methyl)carbamoyl)oxy)methyl)-1-methyl-1H-1,2,3-triazol-4-yl)-2-methylpyridin-3-yl)oxy)cyclohexane-1-carboxylic acid] the figure was 243 nM; with `CCC1(N(C)C(=O)OCc2c(-c3ccc(O[C@H]4CCC[C@H](C(=O)O)C4)c(C)n3)nnn2C)CC1` [Example 131, (1S,3S)-3-((6-(5-((((1-ethylcyclopropyl)(methyl)carbamoyl)oxy)methyl)-1-methyl-1H-1,2,3-triazol-4-yl)-2-methylpyridin-3-yl)oxy)cyclohexane-1-carboxylic acid], 187 nM. With `CCCC1(N(C)C(=O)OCc2c(-c3ccc(O[C@H]4CCC[C@H](C(=O)O)C4)c(C)n3)nnn2C)CCC1` [Example 132, (1S,3S)-3-((2-methyl-6-(1-methyl-5-(((methyl(1-propylcyclobutyl)carbamoyl)oxy)methyl)-1H-1,2,3-triazol-4-yl)pyridin-3-yl)oxy)cyclohexane-1-carboxylic acid] the figure was 180 nM; with `CCC1(N(C)C(=O)OCc2c(-c3ccc(O[C@H]4CCC[C@H](C(=O)O)C4)c(C)n3)nnn2C)CCC1` [Example 133, (1S,3S)-3-((6-(5-((((1-ethylcyclobutyl)(methyl)carbamoyl)oxy)methyl)-1-methyl-1H-1,2,3-triazol-4-yl)-2-methylpyridin-3-yl)oxy)cyclohexane-1-carboxylic acid], 174 nM; with `Cc1nc(-c2nnn(C)c2COC(=O)N2CC3(CCC3)C2)ccc1O[C@H]1CCC[C@H](C(=O)O)C1` [Example 134, (1S,3S)-3-((6-(5-(((2-azaspiro[3.3]heptane-2-carbonyl)oxy)methyl)-1-methyl-1H-1,2,3-triazol-4-yl)-2-methylpyridin-3-yl)oxy)cyclohexane-1-carboxylic acid], 76 nM. With `Cc1nc(-c2nnn(C)c2COC(=O)N2CCC3(CCC3)C2)ccc1O[C@H]1CCC[C@H](C(=O)O)C1` [Example 135, (1S,3S)-3-((6-(5-(((6-azaspiro[3.4]octane-6-carbonyl)oxy)methyl)-1-methyl-1H-1,2,3-triazol-4-yl)-2-methylpyridin-3-yl)oxy)cyclohexane-1-carboxylic acid] the figure was 47 nM; with `Cc1nc(-c2nnn(C)c2COC(=O)N(C)C2CCC2)ccc1O[C@H]1CCC[C@H](C(=O)O)C1` [Example 136, (1S,3S)-3-((6-(5-(((cyclobutyl(methyl)carbamoyl)oxy)methyl)-1-methyl-1H-1,2,3-triazol-4-yl)-2-methylpyridin-3-yl)oxy)cyclohexane-1-carboxylic acid], 36 nM; with `Cc1nc(-c2nnn(C)c2COC(=O)N2CCCC(C)(C)C2)ccc1O[C@H]1CCC[C@H](C(=O)O)C1` [Example 137, (1S,3S)-3-((6-(5-(((3,3-dimethylpiperidine-1-carbonyl)oxy)methyl)-1-methyl-1H-1,2,3-triazol-4-yl)-2-methylpyridin-3-yl)oxy)cyclohexane-1-carboxylic acid], 292 nM. In the case of `Cc1nc(-c2nnn(C)c2COC(=O)N(C)C(C)C)ccc1O[C@H]1CCC[C@H](C(=O)O)C1` [Example 138], the IC50 was determined as 98 nM. With `Cc1nc(-c2nnn(C)c2COC(=O)N(C)C2CC(F)(F)C2)ccc1O[C@H]1CCC[C@H](C(=O)O)C1` [Example 139, (1S,3S)-3-((6-(5-((((3,3-difluorocyclobutyl)(methyl)carbamoyl)oxy)methyl)-1-methyl-1H-1,2,3-triazol-4-yl)-2-methylpyridin-3-yl)oxy)cyclohexane-1-carboxylic acid] the figure was 70 nM; with `Cc1nc(-c2nnn(C)c2COC(=O)N2CCC(C)(C)C2)ccc1O[C@H]1CCC[C@H](C(=O)O)C1` [Example 140, (1S,3S)-3-((6-(5-(((3,3-dimethylpyrrolidine-1-carbonyl)oxy)methyl)-1-methyl-1H-1,2,3-triazol-4-yl)-2-methylpyridin-3-yl)oxy)cyclohexane-1-carboxylic acid], 148 nM.

On to `Cc1nc(-c2nnn(C)c2COC(=O)N(C)C2CC(F)(F)C2)ccc1O[C@H]1CCC[C@@H](C(=O)O)C1` [Example 141, (1R,3S)-3-((6-(5-((((3,3-difluoro-cyclobutyl)(methyl)carbamoyl)oxy)methyl)-1-methyl-1H-1,2,3-triazol-4-yl)-2-methylpyridin-3-yl)oxy)cyclohexane-1-carboxylic acid], for which the IC50 was 283 nM.

For the compound `Cc1nc(-c2nnn(C)c2COC(=O)N(C)C2CC2)ccc1O[C@H]1CCC[C@H](C(=O)O)C1` [Example 142, (1S,3S)-3-((6-(5-(((cyclopropyl(methyl)carbamoyl)oxy)methyl)-1-methyl-1H-1,2,3-triazol-4-yl)-2-methylpyridin-3-yl)oxy)cyclohexane-1-carboxylic acid], the IC50 stood at 252 nM. With `Cc1nc(-c2nnn(C)c2COC(=O)N2CCC(F)(F)C2)ccc1O[C@H]1CCC[C@H](C(=O)O)C1` [Example 143, (1S,3S)-3-((6-(5-(((3,3-difluoro-pyrrolidine-1-carbonyl)oxy)methyl)-1-methyl-1H-1,2,3-triazol-4-yl)-2-methylpyridin-3-yl)oxy)cyclohexane-1-carboxylic acid], the IC50 was 518 nM.

For the compound `Cc1nc(-c2nnn(C)c2COC(=O)N2CCC3(CC3)C2)ccc1O[C@H]1CCC[C@H](C(=O)O)C1` [Example 144, (1S,3S)-3-((6-(5-(((5-azaspiro[2.4]heptane-5-carbonyl)oxy)methyl)-1-methyl-1H-1,2,3-triazol-4-yl)-2-methylpyridin-3-yl)oxy)cyclohexane-1-carboxylic acid], the IC50 worked out at 89 nM. As to `Cc1nc(-c2nnn(C)c2COC(=O)N(C)CC2CC(F)(F)C2)ccc1O[C@H]1CCC[C@H](C(=O)O)C1` [Example 145, (1S,3S)-3-((6-(5-(((((3,3-difluoro-cyclobutyl)methyl)(methyl)carbamoyl)oxy)methyl)-1-methyl-1H-1,2,3-triazol-4-yl)-2-methylpyridin-3-yl)oxy)cyclohexane-1-carboxylic acid], the IC50 worked out at 94 nM.

As for `Cc1nc(-c2nnn(C)c2COC(=O)N(C)C2CC23CCC3)ccc1O[C@H]1CCC[C@@H](C(=O)O)C1` (stereo partly drawn) [Example 146, (1R,3S)-3-((2-methyl-6-(1-methyl-5-(((methyl(spiro[2.3]hexan-1-yl)carbamoyl)oxy)methyl)-1H-1,2,3-triazol-4-yl)pyridin-3-yl)oxy)cyclohexane-1-carboxylic acid], the IC50 was 1820 nM. Then `Cc1nc(-c2nnn(C)c2COC(=O)N2CC3CCC2C3)ccc1O[C@H]1CCC[C@H](C(=O)O)C1` (stereo partly drawn) [Example 148, (1S,3S)-3-((6-(5-(((-2-azabicyclo[2.2.1]heptane-2-carbonyl)oxy)methyl)-1-methyl-1H-1,2,3-triazol-4-yl)-2-methylpyridin-3-yl)oxy)cyclohexane-1-carboxylic acid], with 325 nM.
